Patent publication US20090042879A1, “PHTHALAZINONE DERIVATIVES AND PHARMACEUTICAL COMPOSITIONS COMPRISING THE SAME” (NIPPON SHINYAKU CO., LTD., priority 2005, published 2009)

Tests used:
[1] = system: TNF-α production from rat whole blood cells stimulated with LPS; test: TNF-α production-suppressing activity in LPS-stimulated rat whole blood (ELISA); type: cell-based; details: 37° C. for 5 hours
Description: The activity of a test compound to suppress TNF-α production from rat whole blood cells stimulated with LPS was evaluated in the manner mentioned below (J. Pharmacol. Exp. Ther., 302, 390-396, 2000).
Under anesthesia with ether, a proper amount of blood was taken out from a 10-week male SD rat (♂, 10-week old) through its abdominal vein into a tube with EDTA (1.6 mg/mL) therein. A test compound was dissolved in dimethyl sulfoxide to prepare its 10^−2 M solution, which was diluted before use. 80 μL of rat blood was dispensed into each well of a 96-well plate, then 10 μL of the test compound solution was added thereto, and incubated at 37° C. in 5% CO2 for 30 minutes. The test compound and the blood were well mixed, then 10 μL of LPS (100 μg/mL) was added thereto, and incubated at 37° C. in 5% CO2 for 5 hours. Further, 100 μL of PBS was added to each well, then the plate was centrifuged at 4000 rpm for 2 minutes to collect the supernatant, and this was frozen and stored at −80° C. until its use for analysis. The amount of TNF-α production was measured through ELISA. IC50 for TNF-α production-suppressing activity was calculated as the test compound concentration for 50% inhibition of TNF-α production.
As a control compound, the above-mentioned known compound (compound of general formula [A] in which R is a carboxyl group, cis-4-[4-(3,4-dimethoxyphenyl)-1-oxo-4a,5,8,8a-tetrahydro-1H-phthalazin-2-yl-methyl]benzoic acid (hereinafter referred to as control compound A)) was used.

human recombinant PDE4D = molecular target: T1, human recombinant PDE4D (Homo sapiens, UniProt Q08499); test: PDE4 inhibitory activity (cAMP hydrolysis, HitHunter cAMP II chemiluminescent kit); type: biochemical; details: 5 ng human recombinant PDE4D, 1 pmol cAMP, 30° C. for 30 minutes
T1 construct: purchased ABNOVA H00005144-P01
Description: The activity of a test compound to inhibit human PDE4 was evaluated in the manner mentioned below.
In the presence of a test compound (10^−7 to 10^−12 M), 1 pmol of cAMP was hydrolyzed through incubation with 5 ng of human recombinant PDE4D (ABNOVA's #H00005144-P01, Lot. FAK0050713Jb01, Taiwan) at 30° C. for 30 minutes. After the hydrolysis, the cAMP concentration was measured with a chemiluminescent kit, HitHunter cAMP II Assay Kit (by Amersham Bioscience).

TNCB-induced dermatitis = test: Dermatitis inhibitory effect in trinitrochlorobenzene (TNCB)-induced dermatitis model; type: in vivo, BALB/C mouse; details: 20 mg of 1.0% test compound/vaseline ointment on right pinna, five times in 1 week; pinna thickness 6 hours after last application
Description: The dermatitis inhibitory effect of a test compound was investigated, using a trinitrochlorobenzene (TNCB)-induced dermatitis model (J. Invest. Dermatol., 105, 749-755, 1995, J. Immuno., 159, 2484-2491, 1997).
20 μL of 1% (w/v) TNCB/acetone solution was applied dropwise to both sides of the right pinna of a BALB/C mouse (♂, 8-week old), whereby the mouse was sensitized. From day 7 after the sensitization with TNCB, 1% TNCB/acetone solution was applied to both sides of the right pinna of the mouse every other day at 3 times/week, for 3 weeks in total. TNCB was applied for 2 weeks so as to fully induce dermatitis in the mouse, and then 20 mg of 1.0% test compound/vaseline ointment was applied to both sides of the right pinna five times in total for 1 week. At 6 hours after the last application, the thickness of the right pinna of the mouse was measured, and the effect of the test compound on dermatitis was thus evaluated. The inhibitory rate was calculated according to the following formula.
Inhibitory Rate (%)={1−[mean thickness of inflamed pinna (right ear) of chemical-treated group−mean thickness of non-inflamed pinna (left ear) of the group]/[mean thickness of inflamed pinna (right ear) of diseased control group−mean thickness of non-inflamed pinna (left ear) of the group]}×100.

[2] = Metabolism by human liver microsome; type: in vitro ADME; details: NADPH producing system, 37° C., 10 minutes after start of incubation
Description: The metabolic characteristics of a test compound were investigated, using human liver microsome.
400 μL of EP buffer (0.25 mM EDTA, 0.25 M potassium phosphate buffer, pH 7.4), 50 μL of 20 mg/mL human liver microsome fraction (by KAC), 350 μl of pure water and 100 μL of 1×10^−4 M test compound were put into a 1.5 mL microtube, and preincubated at 37° C. for 5 minutes. 100 μL of an NADPH producing system (containing 20 mg of NADP+, 70 mg of G6P, 40 units of G6PDH, 20 mg of magnesium chloride hexahydrate in 1 mL of pure water) was added to it, and incubated. To 100 μL of the sample taken at 10 minutes after the start of the incubation, added was the same amount of acetonitrile, and the reaction was thereby stopped. […] 20 μL of the supernatant was led into a high-performance liquid chromatography (Shimadzu'sSPD-10A, LC-10AS, CTO-10A, C-R6A), and the peak area of the test compound at 320 nm was measured, using a C18 column (Cadenza, CD-C18, 75×4.6 mm). […] Under the condition, the peak area of the test compound was measured. The metabolic rate was calculated as follows: 100 μL of acetonitrile was added to 90 μL of the above pre-incubated solution, and then 10 μl of the NADPH producing system was added thereto, and the resulting solution was analyzed for the peak area of the test compound. Based on it, the metabolic rate in 10 minutes after the incubation was calculated.

[3] = Rattus norvegicus, Whole blood cell, 5 h

T1 sequence (Q08499 whole entry): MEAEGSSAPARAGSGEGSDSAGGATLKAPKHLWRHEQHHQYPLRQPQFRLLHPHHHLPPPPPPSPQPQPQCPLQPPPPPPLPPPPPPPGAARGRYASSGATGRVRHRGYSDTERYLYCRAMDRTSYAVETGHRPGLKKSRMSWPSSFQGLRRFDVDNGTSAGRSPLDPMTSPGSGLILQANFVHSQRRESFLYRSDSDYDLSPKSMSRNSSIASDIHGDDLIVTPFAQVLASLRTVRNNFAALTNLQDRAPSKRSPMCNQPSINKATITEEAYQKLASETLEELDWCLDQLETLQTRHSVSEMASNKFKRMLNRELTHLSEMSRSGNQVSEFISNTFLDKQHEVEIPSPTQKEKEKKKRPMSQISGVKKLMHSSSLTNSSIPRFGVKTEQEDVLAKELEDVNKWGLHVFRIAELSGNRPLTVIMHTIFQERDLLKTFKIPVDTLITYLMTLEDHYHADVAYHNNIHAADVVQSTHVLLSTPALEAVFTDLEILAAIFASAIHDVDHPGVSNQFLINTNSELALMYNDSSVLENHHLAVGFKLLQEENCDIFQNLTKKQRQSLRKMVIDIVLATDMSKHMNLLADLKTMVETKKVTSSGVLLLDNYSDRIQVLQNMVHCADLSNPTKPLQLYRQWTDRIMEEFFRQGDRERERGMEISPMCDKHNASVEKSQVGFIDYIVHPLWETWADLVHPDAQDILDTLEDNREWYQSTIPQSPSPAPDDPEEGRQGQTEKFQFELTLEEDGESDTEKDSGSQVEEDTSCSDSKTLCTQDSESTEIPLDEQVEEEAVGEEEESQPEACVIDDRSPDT

Row | Compound | IC50 ([1]; Whole blood cell) | IC50 (human recombinant PDE4D) | IC50 [1, 3] | Dermatitis Inhibitory Percentage (%) (TNCB-induced dermatitis) | IC50 ([1]; monomaleate) | Metabolic Rate (%) [2]
1 | COc1ccc(C2=NN(Cc3cccc(CN4CCNC(=O)C4)c3)C(=O)[C@H]3CC=CC[C@@H]23)cc1OC (relative stereo) [Example 20, cis-(+)-4-(3,4-dimethoxyphenyl)-2-[3-(3-oxopiperazin-1-ylmethyl)benzyl]-4a,5,8,8a-tetrahydro-2H-phthalazin-1-one] | 0.019 µM | – | – | – | – | –
2 | COc1ccc(C2=NN(Cc3ccc(CN4CCOCC4)cc3)C(=O)C3CC=CCC23)cc1OC (stereo not drawn) [Example 1, cis-4-(3,4-Dimethoxyphenyl)-2-[4-(morpholin-4-ylmethyl)benzyl]-4a,5,8,8a-tetrahydro-2H-phthalazin-1-one] | – | 0.063 µM | 0.0043 µM | 31.2% | – | –
3 | COc1ccc(C2=NN(Cc3ccc(CN4CCOCC4)cc3)C(=O)C3CC=CCC23)cc1OC (single isomer, unassigned) [Example 2-2, cis-(+)-4-(3,4-Dimethoxyphenyl)-2-[4-(morpholin-4-ylmethyl)benzyl]-4a,5,8,8a-tetrahydro-2H-phthalazin-1-one monomaleate] | – | 0.00079 µM | – | – | 0.0011 µM | –
4 | COc1ccc(C2=NN(Cc3ccc(C[N+]4([O-])CCOCC4)cc3)C(=O)[C@H]3CC=CC[C@@H]23)cc1OC (relative stereo) [Example 21, cis-(+)-4-{4-[4-(3,4-dimethoxyphenyl)-1-oxo-4a,5,8,8a-tetrahydro-1H-phthalazin-2-ylmethyl]benzyl}morpholine 4-oxide] | 0.012 µM | – | – | – | – | –
5 | COc1ccc(C2=NN(Cc3ccc(CN4CCOCC4)cc3)C(=O)C3CC=CCC23)cc1OC (single isomer, unassigned) [Example 2-1, cis-(+)-4-(3,4-Dimethoxyphenyl)-2-[4-(morpholin-4-ylmethyl)benzyl]-4a,5,8,8a-tetrahydro-2H-phthalazin-1-one] | 0.0024 µM | – | – | 38.5% | – | 61.5%
6 | COc1ccc(C2=NN(Cc3ccc(CN4CCOCC4)cc3)C(=O)[C@H]3CCCC[C@@H]23)cc1OC (relative stereo) [Example 13, cis-4-(3,4-Dimethoxyphenyl)-2-[4-(morpholin-4-ylmethyl)benzyl]-4a,5,6,7,8,8a-hexahydro-2H-phthalazin-1-one] | 0.059 µM | 0.005 µM | – | 33.2% | – | –
7 | COc1ccc(C2=NN(Cc3ccc(N4CCOCC4)cc3)C(=O)[C@H]3CC=CC[C@@H]23)cc1OC (relative stereo) [Example 24, cis-4-(3,4-Dimethoxyphenyl)-2-(4-morpholin-4-ylbenzyl)-4a,5,8,8a-tetrahydro-2H-phthalazin-1-one] | 0.012 µM | – | – | – | – | –
8 | COc1ccc(C2=NN(Cc3ccc(CN4CCC5(CC4)OCCO5)cc3)C(=O)[C@H]3CC=CC[C@@H]23)cc1OC (relative stereo) [Example 5, cis-4-(3,4-Dimethoxyphenyl)-2-[4-(1,4-dioxa-8-azaspiro[4,5]dec-8-ylmethyl)benzyl]-4a,5,8,8a-tetrahydro-2H-phthalazin-1-one] | 0.199 µM | 0.02 µM | – | 20.2% | – | –
9 | COc1ccc(C2=NN(Cc3ccc(CN4CCC(=O)CC4)cc3)C(=O)[C@H]3CC=CC[C@@H]23)cc1OC (relative stereo) [Example 6, cis-4-(3,4-Dimethoxyphenyl)-2-[4-(4-oxopiperidin-1-ylmethyl)benzyl]-4a,5,8,8a-tetrahydro-2H-phthalazin-1-one] | – | 0.0013 µM | 0.084 µM | 36.8% | – | –
10 | COc1ccc(C2=NN(Cc3ccc(C(=O)O)cc3)C(=O)[C@H]3CC=CC[C@@H]23)cc1OC (relative stereo) [control compound A, cis-4-[4-(3,4-dimethoxyphenyl)-1-oxo-4a,5,8,8a-tetrahydro-1H-phthalazin-2-yl-methyl]benzoic acid, reference compound] | 133 µM | – | – | 2.6% | – | 35.2%
11 | COc1ccc(C2=NN(Cc3ccc(Cn4ccnc4)cc3)C(=O)[C@H]3CC=CC[C@@H]23)cc1OC (relative stereo) [Example 9, cis-4-(3,4-Dimethoxyphenyl)-2-[4-(imidazol-1-ylmethyl)benzyl]-4a,5,8,8a-tetrahydro-2H-phthalazin-1-one] | – | 0.025 µM | 0.001 µM | – | – | –
12 | COc1ccc(C2=NN(Cc3ccc(CN4CCNC(=O)C4)cc3)C(=O)[C@H]3CC=CC[C@@H]23)cc1OC (relative stereo) [Example 16, cis-(+)-4-(3,4-Dimethoxyphenyl)-2-[4-(3-oxopiperazin-1-ylmethyl)benzyl]-4a,5,8,8a-tetrahydro-2H-phthalazin-1-one] | 0.0049 µM | – | – | – | – | –
13 | COc1ccc(C2=NN(Cc3cccc(CN4CCOCC4)c3)C(=O)[C@H]3CC=CC[C@@H]23)cc1OC (relative stereo) [Example 10, cis-4-(3,4-Dimethoxyphenyl)-2-[3-(morpholin-4-ylmethyl)benzyl]-4a,5,8,8a-tetrahydro-2H-phthalazin-1-one] | 0.107 µM | 0.02 µM | – | 31.1% | – | –
